Key:
ER [1] = molecular target: T1, ER (Homo sapiens (Human), UniProt P03372); assay: In-cell western (ICW) ER degradation assay in MCF-7 cells; type: cell-based; conditions: MCF7, 16 hrs; for Dmax: MCF7, maximal ER degradation; for DC50: ER degradation; for MCF7 Dmax %: maximal ER degradation
ERα_LBD(GST) = ERα_LBD(GST) (Homo sapiens (Human), UniProt P03372); assay: LanthaScreen TR-FRET ERα competitive binding assay; conditions: read-out: ERα HTRF IC50
Method: • 1. ERα_LBD(GST) protein: 4 nM • 2. Tb Anti-GST: 2 nM • 3. Fluormone ES2 Green tracer: 3 nM • 4. Incubation time: 60 min • 5. DMSO: 1% • 6. Assay buffer: Adding 1M DTT to Nuclear receptor Buffer K for final 5 mM DTT. • 7. ZPE: 1% DMSO • 8. HPE: 1 μM ARV_471 • 9. LanthaScreen® TR-FRET ERα Competitive Binding Assay (ThermoFisher, #A15887)
• 1) Cherry pick 2 μL 10 mM compound stock to column 1 of a 384 intermediate plate • 2) Add 18 μL DMSO to column 1 to dilute compound to 1 mM. • 3) Transfer 10 μL 1 mM compound to column 1 of a LDV plate. • 2) Add 6 μl DMSO to column 2-10 of the LDV plate. • 3) Compounds undergo 3-fold serial dilution (3 μL+6 μL) in DMSO. • 4) Transfer 120 nL compound solution to assay plate. • ZPE: 120 nL 100% DMSO
Prepare complete nuclear receptor buffer K by adding 1 M DTT to nuclear receptor buffer K for a final concentration of 5 mM DTT. Complete nuclear receptor buffer K must be prepared fresh daily. Prepare 2× protein solution using complete nuclear receptor buffer K containing 8 nM ERα_LBD(GST) and 4 nM Tb Anti-GST. Then, prepare 2× Fluormone ES2 Green tracer (6 nM) using complete nuclear receptor buffer K. Add 6 μL 2× Fluormone ES2 green tracer into a compound plate (PerkinElmer 6008289) by dragonfly with one-tips-addition. Subsequently, add 6 μL 2× protein solution into the plate. Briefly and gently mix the 384-well plate on a plate shaker and incubate at room temperature protected from light for 60 min. The plate is sealed with a cover to minimize evaporation. Read the plate at wavelengths of 520 nm and 495 nm. Calculate the TR-FRET ratio by dividing the emission signal at 520 nm by the emission signal at 495 nm. Generate a binding curve by plotting the emission ratio vs. the log [ligand]. To determine the IC50 value, fit the data using XL-fit for a sigmoidal dose-response.

ER [2] = molecular target: T1, ER; assay: In-cell western (ICW) ER degradation assay in T47D cells; type: cell-based; conditions: 16 hrs; for DC50: ER degradation; for Dmax / T47D Dmax %: maximal ER degradation
CRBN/DDB1 = CRBN/DDB1 (Homo sapiens (Human), UniProt Q96SW2); assay: HTRF binding assay to CRBN/DDB1; conditions: read-out: CRBN HTRF IC50
Method: The binding potency was determined using HTRF assay technology (Perkin Elmer). Compounds were serially diluted in DMSO and 0.2 μL volume was transferred to white 384-well plate.

T1 sequence (P03372 whole entry): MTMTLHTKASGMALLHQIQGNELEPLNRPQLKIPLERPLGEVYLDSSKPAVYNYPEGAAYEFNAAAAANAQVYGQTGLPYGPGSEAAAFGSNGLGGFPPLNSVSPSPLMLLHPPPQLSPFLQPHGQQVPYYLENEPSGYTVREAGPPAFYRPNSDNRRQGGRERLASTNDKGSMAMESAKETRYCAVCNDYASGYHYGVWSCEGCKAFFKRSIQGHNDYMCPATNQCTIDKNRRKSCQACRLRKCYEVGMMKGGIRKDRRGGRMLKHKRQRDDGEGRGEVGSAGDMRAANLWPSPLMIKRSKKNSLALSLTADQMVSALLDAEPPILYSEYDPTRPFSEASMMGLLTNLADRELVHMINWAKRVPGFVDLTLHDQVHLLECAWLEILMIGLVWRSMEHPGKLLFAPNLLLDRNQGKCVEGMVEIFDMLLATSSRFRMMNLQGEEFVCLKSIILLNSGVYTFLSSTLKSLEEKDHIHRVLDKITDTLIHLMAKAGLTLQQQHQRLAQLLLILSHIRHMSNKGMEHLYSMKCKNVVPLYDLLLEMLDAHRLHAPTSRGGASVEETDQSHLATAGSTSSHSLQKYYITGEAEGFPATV
Sequence of ERα_LBD(GST) (P03372 311-547): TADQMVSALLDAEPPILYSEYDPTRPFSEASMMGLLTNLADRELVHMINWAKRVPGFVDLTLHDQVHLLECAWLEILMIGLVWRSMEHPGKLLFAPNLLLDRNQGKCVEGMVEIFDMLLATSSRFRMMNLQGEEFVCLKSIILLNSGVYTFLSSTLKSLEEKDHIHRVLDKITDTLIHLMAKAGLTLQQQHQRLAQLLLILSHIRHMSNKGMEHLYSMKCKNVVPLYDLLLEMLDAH
Sequence of CRBN/DDB1 (Q96SW2 whole entry): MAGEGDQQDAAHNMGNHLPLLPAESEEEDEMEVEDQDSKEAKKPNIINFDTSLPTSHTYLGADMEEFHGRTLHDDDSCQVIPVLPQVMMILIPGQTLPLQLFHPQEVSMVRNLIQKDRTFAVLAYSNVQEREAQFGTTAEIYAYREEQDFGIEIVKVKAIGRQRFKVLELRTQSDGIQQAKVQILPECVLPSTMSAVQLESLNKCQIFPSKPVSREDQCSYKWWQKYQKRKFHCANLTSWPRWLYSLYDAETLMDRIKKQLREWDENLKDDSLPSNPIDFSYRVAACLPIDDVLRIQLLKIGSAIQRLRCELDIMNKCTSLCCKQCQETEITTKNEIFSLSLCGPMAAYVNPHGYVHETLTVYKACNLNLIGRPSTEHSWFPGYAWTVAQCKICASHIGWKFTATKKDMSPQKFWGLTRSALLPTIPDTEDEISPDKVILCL
Sequence of CRBN/DDB1 (Q16531 whole entry partner): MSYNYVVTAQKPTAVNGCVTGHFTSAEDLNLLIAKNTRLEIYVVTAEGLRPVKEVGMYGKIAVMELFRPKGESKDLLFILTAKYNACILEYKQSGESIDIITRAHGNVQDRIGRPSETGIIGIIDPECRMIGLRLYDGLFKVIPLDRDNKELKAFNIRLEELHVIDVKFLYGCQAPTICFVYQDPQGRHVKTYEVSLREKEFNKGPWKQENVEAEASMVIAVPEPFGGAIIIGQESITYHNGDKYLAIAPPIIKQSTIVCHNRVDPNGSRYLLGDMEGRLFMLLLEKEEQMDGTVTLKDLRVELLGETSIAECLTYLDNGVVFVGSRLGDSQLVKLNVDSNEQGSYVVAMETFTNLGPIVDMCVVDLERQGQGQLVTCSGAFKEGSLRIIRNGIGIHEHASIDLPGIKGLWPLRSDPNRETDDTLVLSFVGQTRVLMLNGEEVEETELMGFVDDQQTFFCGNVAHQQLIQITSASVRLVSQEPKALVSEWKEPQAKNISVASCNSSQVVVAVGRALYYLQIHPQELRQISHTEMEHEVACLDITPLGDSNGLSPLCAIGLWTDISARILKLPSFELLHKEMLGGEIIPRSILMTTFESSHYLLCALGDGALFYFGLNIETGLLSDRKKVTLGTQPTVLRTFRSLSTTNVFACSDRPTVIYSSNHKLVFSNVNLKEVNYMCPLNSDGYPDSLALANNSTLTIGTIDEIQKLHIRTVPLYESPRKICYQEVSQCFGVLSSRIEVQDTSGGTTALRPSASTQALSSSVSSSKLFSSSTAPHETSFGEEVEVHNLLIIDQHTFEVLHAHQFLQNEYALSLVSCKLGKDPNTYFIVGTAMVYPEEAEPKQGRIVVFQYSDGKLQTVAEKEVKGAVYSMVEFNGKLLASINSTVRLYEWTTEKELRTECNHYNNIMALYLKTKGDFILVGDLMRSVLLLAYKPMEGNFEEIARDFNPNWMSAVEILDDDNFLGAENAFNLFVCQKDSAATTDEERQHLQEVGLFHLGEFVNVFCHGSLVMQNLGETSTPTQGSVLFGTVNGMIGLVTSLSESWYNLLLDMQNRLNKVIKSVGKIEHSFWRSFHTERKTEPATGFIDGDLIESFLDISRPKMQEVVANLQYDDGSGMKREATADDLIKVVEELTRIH

Row | SMILES | Dmax (ER [1]) [%] | IC50 (ERα_LBD(GST)) [nM] | DC50 (ER [1]) [nM] | DC50 (ER [2]) [nM] | Dmax (ER [2]) [%] | MCF7 Dmax % (ER [1]) | T47D Dmax % (ER [2]) | IC50 (CRBN/DDB1) [nM]
1 | O=C1CCC(N2Cc3c(ccc4c3OC[C@H]3CN(CC5CCN(c6ccc([C@@H]7c8ccc(O)cc8OC[C@@H]7c7ccccc7)cc6)CC5)CCN43)C2=O)C(=O)N1 (single isomer, unassigned) [Compound A8, 3-((R)-7-((1-(4-((3S,4R)-7-hydroxy-3-phenylchroman-4-yl)phenyl)piperidin-4-yl)methyl)-1-oxo-1,3,5,5a,6,7,8,9-octahydro-2H-pyrazino[1′,2′:4,5][1,4]oxazino[2,3-e]isoindol-2-yl)piperidine-2,6-dione] | 50 to 75 | < 5 | – | – | – | – | – | –
2 | O=C1CCC(N2Cc3c(ccc4c3OC[C@H]3CN(CC5CCN(c6ccc([C@@H]7c8ccc(O)cc8OC[C@@H]7c7ccccc7)cc6F)CC5)CCN43)C2=O)C(=O)N1 (single isomer, unassigned) [Compound A9, 3-((R)-7-((1-(2-fluoro-4-((3S,4R)-7-hydroxy-3-phenylchroman-4-yl)phenyl)piperidin-4-yl)methyl)-1-oxo-1,3,5,5a,6,7,8,9-octahydro-2H-pyrazino[1′,2′:4,5][1,4]oxazino[2,3-e]isoindol-2-yl)piperidine-2,6-dione] | 50 to 75 | < 5 | – | – | – | – | – | –
3 | O=C1CCC(N2Cc3c(ccc4c3OC[C@@H]3CN(CC5CC6(CCN(c7ccc([C@H]8c9ccc(O)cc9OC[C@H]8c8ccccc8)cc7)CC6)C5)CCN43)C2=O)C(=O)N1 (single isomer, unassigned) [Compound A21] | – | < 5 | – | – | – | – | – | –
4 | O=C1CCC(N2Cc3cc4c(cc3C2=O)OC[C@@H]2CN(CC3CC5(CCN(c6ccc([C@H]7c8ccc(O)cc8OC[C@H]7c7ccccc7)cc6)CC5)C3)CCN42)C(=O)N1 (single isomer, unassigned) [Compound A27] | 50 to 75 | < 5 | – | – | – | – | – | –
5 | O=C1CC[C@H](N2Cc3cc4c(cc3C2=O)OC[C@@H]2CN(CC3CC5(CCN(c6ccc([C@@H]7c8ccc(O)cc8OC[C@@H]7c7ccccc7)cc6)CC5)C3)CCN42)C(=O)N1 (single isomer, unassigned) [Compound A59] | 50 to 75 | < 5 | 1 to 10 | < 1 | ≥ 75 | – | – | –
6 | O=C1CCC(N2Cc3c(ccc4c3OC[C@H]3CN(CC5CC6(CCN(c7ccc([C@@H]8c9ccc(O)cc9OC[C@@H]8c8ccccc8)cn7)CC6)C5)CCN43)C2=O)C(=O)N1 (single isomer, unassigned) [Compound A66] | – | ≥ 5 | 1 to 10 | 1 to 10 | – | B (“B”: >50% and <75%) | B (“B”: >50% and <75%) | –
7 | O=C1CCC(N2Cc3cc(N4CCN(CC5CC6(CCN(c7ccc([C@@H]8c9ccc(O)cc9OC[C@@H]8c8ccccc8)cn7)CC6)C5)CC4)ccc3C2=O)C(=O)N1 (single isomer, unassigned) [Compound A68] | – | < 5 | 1 to 10 | 1 to 10 | – | B (“B”: >50% and <75%) | A (“A”; >=75%) | –
8 | COc1cc(N2CCC(CN3CCN4c5cc6c(cc5OC[C@H]4C3)C(=O)N(C3CCC(=O)NC3=O)C6)CC2)ccc1[C@@H]1c2ccc(O)cc2OC[C@@H]1c1ccccc1 (single isomer, unassigned) [Compound A84] | 50 to 75 | < 5 | – | – | 50 to 75 | – | – | –
9 | COc1cc(N2CCC(CN3CCN4c5ccc6c(c5OC[C@@H]4C3)CN([C@@H]3CCC(=O)NC3=O)C6=O)CC2)c(F)cc1[C@@H]1c2ccc(O)cc2OC[C@@H]1c1ccccc1 (single isomer, unassigned) [Compound A106] | ≥ 75 | < 5 | < 1 | < 1 | ≥ 75 | – | – | –
10 | COc1cc(N2CCC(CN3CCN4c5ccc6c(c5OC[C@@H]4C3)CN([C@@H]3CCC(=O)NC3=O)C6=O)CC2)ccc1[C@H]1c2ccc(O)cc2OC[C@H]1c1ccccc1 (single isomer, unassigned) [Compound A121] | ≥ 75 | < 5 | – | – | ≥ 75 | – | – | –
11 | COc1cc(N2CCC(CN3CCN4c5cc6c(cc5OC[C@H]4C3)C(=O)N([C@@H]3CCC(=O)NC3=O)C6)CC2)ccc1[C@H]1c2ccc(O)cc2OC[C@H]1c1ccccc1 (single isomer, unassigned) [Compound A122] | ≥ 75 | < 5 | < 1 | < 1 | ≥ 75 | – | – | –
12 | COc1cc(N2CCC3(CC2)CC(CN2CCN4c5ccc6c(c5OC[C@@H]4C2)CN([C@@H]2CCC(=O)NC2=O)C6=O)C3)c(F)cc1[C@@H]1c2ccc(O)cc2OC[C@@H]1c1ccccc1 (single isomer, unassigned) [Compound A125] | ≥ 75 | < 5 | < 1 | < 1 | ≥ 75 | – | – | –
13 | O=C1CC[C@@H](N2Cc3c(ccc4c3OC[C@@H]3CN(C[C@@H]5COC6(CCN(c7ccc([C@H]8c9ccc(O)cc9OC[C@H]8c8ccccc8)cc7)CC6)C5)CCN43)C2=O)C(=O)N1 (single isomer, unassigned) [Compound A132] | 50 to 75 | < 5 | 1 to 10 | 1 to 10 | 50 to 75 | – | – | –
14 | O=C1CCC(N2C(=O)c3cc4c(cc3C2=O)CN(CC(=O)N2CCC3(CC2)CCN(c2ccc([C@H]5c6ccc(O)cc6OC[C@H]5c5ccccc5)cc2)CC3)C4)C(=O)N1 (stereo partly drawn) [Compound A40, 2-(2,6-dioxopiperidin-3-yl)-6-(2-(9-(4-((3R,4S)-7-hydroxy-3-phenylchroman-4-yl)phenyl)-3,9-diazaspiro[5.5]undecan-3-yl)-2-oxoethyl)-6,7-dihydropyrrolo[3,4-f]isoindole-1,3(2H,5H)-dione] | 50 to 75 | ≥ 5 | 1 to 10 | < 1 | 50 to 75 | – | – | –
15 | O=C1CCC(N2Cc3cc4c(cc3C2=O)OCC42CCN(CC3CCC4(CC3)CN(c3ccc([C@H]5c6ccc(O)cc6OC[C@H]5c5ccccc5)cc3)C4)CC2)C(=O)N1 (stereo partly drawn) [Compound A99, 3-(1′-((2-(4-((3R,4S)-7-hydroxy-3-phenylchroman-4-yl)phenyl)-2-azaspiro[3.5]nonan-7-yl)methyl)-7-oxo-5,7-dihydro-2H,6H-spiro[furo[2,3-f]isoindole-3,4′-piperidin]-6-yl)piperidine-2,6-dione] | 50 to 75 | < 5 | < 1 | < 1 | 50 to 75 | – | – | –
16 | O=C1CC[C@@H](N2Cc3cc4c(cc3C2=O)OC[C@H]2CN(C[C@@H]3COC5(CCN(c6ccc([C@H]7c8ccc(O)cc8OC[C@H]7c7ccccc7)cc6F)CC5)C3)CCN42)C(=O)N1 [Compound A160, (R)-3-((R)-3-(((R)-8-(2-fluoro-4-((3R,4S)-7-hydroxy-3-phenylchroman-4-yl)phenyl)-1-oxa-8-azaspiro[4.5]decan-3-yl)methyl)-8-oxo-1,2,3,4,4a,5,8,10-octahydro-9H-pyrazino[1′,2′:4,5][1,4]oxazino[2,3-f]isoindol-9-yl)piperidine-2,6-dione] | < 25 | – | 1 to 10 | 1 to 10 | 25 to 50 | – | – | 500 to 5000
